According to US20240076347A1, “METHODS FOR PREVENTING FUNGAL INFECTIONS” (Cidara Therapeutics, Inc., priority 2016, published 2024):
Numbered stars: 1 amine (or outer) side, 2 acyl side, 3 side chain; on linkers, the order of the positions; unused ones are H or OH. Bridge positions count the residues as written; N and C are the ends. Square brackets hold non-standard residues; d marks the D form. Peptide text beside a SMILES is read from it. * marks the point of attachment. ξ: configuration not given here. Orn(4R-OH,5R-OCH2CH2NMe3+) = C[N+](C)(C)CCO[C@@H](N[*:3])[C@H](O)C[C@H](N[*:1])C(=O)[*:2]; pTerphenylCO(4''-OnC5H11) = CCCCCOc1ccc(-c2ccc(-c3ccc(C(=O)*)cc3)cc2)cc1; hTyr(3S-OH,4S-OH) = N[C@H](C(=O)O)[C@H](O)[C@@H](O)c1ccc(O)cc1; X1 = C[C@H]1CN([*:1])C(C(=O)[*:2])C1O; Hyp = O=C(O)[C@@H]1C[C@@H](O)CN1; ξT = CC(O)C(N)C(=O)O

Assays:
[1] = Pharmacokinetic profile in female rats, SC and IV; settings: rat, in vivo
Description: Pharmacokinetic Profile of CD101. The pharmacokinetic (PK) profile of CD101 in female rats (three per group) was characterized.

Pneumocystis murina = Pneumocystis murina mouse prophylaxis study, lung nuclei and asci counts; assay type: in vivo
Protocol: C3H/HeN mice (Charles River) were infected with P. murina by intranasal inoculation of P. murina organisms at 2×10^6/50 μl from a liquid nitrogen repository. Prior to inoculation, the P. murina were pre-incubated overnight in RPMI 1640 medium supplemented with calf serum and antibiotics to eliminate any bacterial contamination. The immune systems of the mice were suppressed by the addition of dexamethasone at 4 μ[…] to acidified drinking water (sulfuric acid at 1 ml/liter). Acidification is used to prevent secondary microbial infections. The mice were divided into a negative control group (control steroid-C/S), positive control group (trimethoprim/sulfamethoxazole-TMP/SMX) and treatment groups. Drugs to be tested were administered intraperitoneally (IP) on a mg/kg/d basis; dose, route, and frequency of administration varied depending on the agent being tested. […] Immune suppression and treatment continued for the entire 6 week study. At that time, the mice were euthanized by CO2 and lungs processed for analysis by homogenization. Slides were made from the lung homogenates at different dilutions and stained with Diff-Quik to quantify the trophic forms and cresyl echt violet to quantify the asci. Efficacy is based on the reduction of organism burden between the treatment groups and the negative control group was determined by microscopic evaluation. The nuclei and asci counts for each lung were log transformed and statistical analysis was determined by the analysis of variance (ANOVA); individual groups were compared by the Student-Newman-Keuls t test for multiple comparisons using GraphPad Prism.

CCCCCOc1ccc(-c2ccc(-c3ccc(C(=O)N[C@H]4C[C@@H](O)[C@@H](OCC[N+](C)(C)C)NC(=O)C5C(O)[C@@H](C)CN5C(=O)[C@H]([C@@H](C)O)NC(=O)[C@H]([C@H](O)[C@@H](O)c5ccc(O)cc5)NC(=O)[C@@H]5C[C@@H](O)CN5C(=O)C(C(C)O)NC4=O)cc3)cc2)cc1 (stereo partly drawn) [CD101] ({pTerphenylCO(4''-OnC5H11)}-[Orn(4R-OH,5R-OCH2CH2NMe3+)][ξT][Hyp][hTyr(3S-OH,4S-OH)]T[X1]; lactam 1-C)
Tmax ([1]; SC): 8 to 24 h | bioavailability ([1]; sc, 10 mg/kg): 97% | half-life ([1]; subcutaneous, 10 mg/kg, read-out: t½ (converted)): 48 h | asci levels (lung) (Pneumocystis murina; 5 CD101 treatment groups vs positive control TMP/SMX): no difference in efficacy | asci levels (lung) (Pneumocystis murina; IP, all CD101 treatment groups, 6 weeks, vs negative control): statistically significant reduction in asci levels | nuclei levels (lung) (Pneumocystis murina; IP, all dose levels except 0.2 mg/kg/1×/week, 6 weeks, vs negative control): statistically significant reduction in nuclei levels | human equivalent doses preventing Pneumocystis pneumonia in mice (Pneumocystis murina; mice): < 50 mg | nuclei levels (lung) (Pneumocystis murina; three of the CD101 treatment groups, 6 weeks): equally as efficacious as the positive control TMP/SMX
